Assay results from ChEMBL document CHEMBL3797190, “Development of 3,5-Dinitrobenzylsulfanyl-1,3,4-oxadiazoles and Thiadiazoles as Selective Antitubercular Agents Active Against Replicating and Nonreplicating Mycobacterium tuberculosis” (J Med Chem, 2016).
Values after ≈ are worked out from the molar mass of the structure shown.

Experiments:
Salmonella typhimurium [1] = test: Mutagenic activity in Salmonella typhimurium TA100 assessed as reverse mutation at 30 uM by Ames test; assay type: toxicity, organism-based; details: salmonella enterica subsp. enterica serovar typhimurium
Klebsiella pneumoniae [2] = test: Antibacterial activity against Klebsiella pneumoniae D 11750/08 after 24 to 48 hrs by broth microdilution method; assay type: functional
[3] = test system: Mycobacterium tuberculosis; test: Antimycobacterial activity against Mycobacterium tuberculosis CNCTC My 331/88 after 14 days by microdilution method; assay type: functional; details: CNCTC My 331/88, 336 h
[4] = test system: Trichophyton mentagrophytes; test: Antifungal activity against Trichophyton mentagrophytes 445 after 72 to 120 hrs by broth microdilution method; assay type: functional
[5] = Cytotoxicity against human HuH7 cells assessed as cell viability at 20 uM after 48 hrs by MTS assay; assay type: cell-based, Huh-7; details: read-out: Activity
[6] = Cytotoxicity against human HeLa cells assessed as cell viability at 20 uM after 24 hrs by MTS assay; assay type: cell-based; details: read-out: Activity
Lichtheimia corymbifera = test: Antifungal activity against Absidia corymbifera 272 after 24 to 48 hrs by broth microdilution method; assay type: functional
Escherichia coli = test: Antibacterial activity against Escherichia coli ATCC 8739 after 24 to 48 hrs by broth microdilution method; assay type: functional
[7] = Cytotoxicity against human HuH7 cells assessed as cell viability at 20 uM after 24 hrs by MTS assay; assay type: cell-based, Huh-7; details: read-out: Activity
Salmonella typhimurium [8] = test: Mutagenic activity in Salmonella typhimurium TA98 assessed as reverse mutation at 30 uM by Ames test; assay type: toxicity, organism-based; details: salmonella enterica subsp. enterica serovar typhimurium
Candida albicans = test: Antifungal activity against Candida albicans ATCC 44859 after 24 to 48 hrs by broth microdilution method; assay type: functional
Mycobacterium kansasii [9] = test: Antimycobacterial activity against Mycobacterium kansasii CNCTC My 235/80 after 21 days by microdilution method; assay type: functional; details: CNCTC My 235/80, 504 h
Klebsiella pneumoniae [10] = test: Antibacterial activity against ESBL producing Klebsiella pneumoniae J 14368/08 after 24 to 48 hrs by broth microdilution method; assay type: functional
[11] = Cytotoxicity against MDCK2-MDR1 cells assessed as cell viability at 20 uM after 48 hrs by MTS assay; assay type: ADME, cell-based, Canis lupus familiaris, MDCK-II; details: dog, read-out: Activity
Enterococcus faecalis = test: Antibacterial activity against Enterococcus faecalis J 14365/08 after 24 to 48 hrs by broth microdilution method; assay type: functional
[12] = Cytotoxicity against human HeLa cells assessed as cell viability at 20 uM after 48 hrs by MTS assay; assay type: cell-based; details: read-out: Activity
Candida tropicalis = test: Antifungal activity against Candida tropicalis 156 after 24 to 48 hrs by broth microdilution method; assay type: functional
Pseudomonas aeruginosa = test: Antibacterial activity against Pseudomonas aeruginosa ATCC 9027 after 24 to 48 hrs by broth microdilution method; assay type: functional
Mycobacterium kansasii [13] = test: Antimycobacterial activity against Mycobacterium kansasii CNCTC My 6509/96 after 7 days by microdilution method; assay type: functional; details: CNCTC My 6509/96, 168 h
Mycobacterium avium [14] = test: Antimycobacterial activity against Mycobacterium avium CNCTC My 330/88 after 14 days by microdilution method; assay type: functional; details: CNCTC My 330/88, 336 h
[15] = Cytotoxicity against MDCK2-MDR1 cells assessed as cell viability at 20 uM after 24 hrs by MTS assay; assay type: ADME, cell-based, Canis lupus familiaris, MDCK-II; details: dog, read-out: Activity
Staphylococcus aureus [16] = test: Antibacterial activity against Staphylococcus aureus ATCC 6538 after 24 to 48 hrs by broth microdilution method; assay type: functional
Mycobacterium kansasii [17] = test: Antimycobacterial activity against Mycobacterium kansasii CNCTC My 235/80 after 7 days by microdilution method; assay type: functional; details: CNCTC My 235/80, 168 h
Nakaseomyces glabratus = test: Antifungal activity against Candida glabrata 20/I after 24 to 48 hrs by broth microdilution method; assay type: functional
[18] = test system: Staphylococcus epidermidis; test: Antibacterial activity against Staphylococcus epidermidis H 6966/08 after 24 to 48 hrs by broth microdilution method; assay type: functional
Trichosporon asahii = test: Antifungal activity against Trichosporon asahii 1188 after 24 to 48 hrs by broth microdilution method; assay type: functional
Aspergillus fumigatus = test: Antifungal activity against Aspergillus fumigatus 231 after 24 to 48 hrs by broth microdilution method; assay type: functional
Mycobacterium kansasii [19] = test: Antimycobacterial activity against Mycobacterium kansasii CNCTC My 6509/96 after 14 days by microdilution method; assay type: functional; details: CNCTC My 6509/96, 336 h
Staphylococcus aureus [20] = test: Antibacterial activity against methicillin-resistant Staphylococcus aureus H 5996/08 after 24 to 48 hrs by broth microdilution method; assay type: functional
[21] = test system: Mycobacterium tuberculosis; test: Antimycobacterial activity against Mycobacterium tuberculosis CNCTC My 331/88 after 21 days by microdilution method; assay type: functional; details: CNCTC My 331/88, 504 h
Mycobacterium avium [22] = test: Antimycobacterial activity against Mycobacterium avium CNCTC My 330/88 after 21 days by microdilution method; assay type: functional; details: CNCTC My 330/88, 504 h
HeLa [23] = test: Cytotoxicity against human HeLa cells assessed as cell viability after 24 hrs by MTS assay; assay type: cell-based
Mycobacterium kansasii [24] = test: Antimycobacterial activity against Mycobacterium kansasii CNCTC My 6509/96 after 21 days by microdilution method; assay type: functional; details: CNCTC My 6509/96, 504 h
[25] = Cytotoxicity against MDCK2-MDR1 cells assessed as cell viability after 24 hrs by MTS assay; assay type: ADME, cell-based; details: Canis lupus familiaris, MDCK-II
HeLa [26] = test: Cytotoxicity against human HeLa cells assessed as cell viability after 48 hrs by MTS assay; assay type: cell-based
[27] = Cytotoxicity against human HuH7 cells assessed as cell viability after 24 hrs by MTS assay; assay type: cell-based; details: Huh-7, 24 h
Mycobacterium kansasii [28] = test: Antimycobacterial activity against Mycobacterium kansasii CNCTC My 235/80 after 14 days by microdilution method; assay type: functional; details: CNCTC My 235/80, 336 h
Pichia kudriavzevii = test: Antifungal activity against Candida krusei E28 after 24 to 48 hrs by broth microdilution method; assay type: functional
[29] = Cytotoxicity against MDCK2-MDR1 cells assessed as cell viability after 48 hrs by MTS assay; assay type: ADME, cell-based; details: Canis lupus familiaris, MDCK-II

SMILES | Activity (Salmonella typhimurium [1]) | MIC99 [3] | viability at 48 h, 20 µM [5] | viability at 24 h, 20 µM [6] | viability at 24 h, 20 µM [7] | MIC99 (Mycobacterium kansasii [9]) | viability at 48 h, 20 µM [11] | viability at 48 h, 20 µM [12] | MIC99 (Mycobacterium kansasii [13]) | MIC99 (Mycobacterium avium [14]) | viability at 24 h, 20 µM [15] | MIC99 (Mycobacterium kansasii [17]) | MIC99 (Mycobacterium kansasii [19]) | MIC99 [21] | MIC99 (Mycobacterium avium [22]) | IC50 (HeLa [23]) | MIC99 (Mycobacterium kansasii [24]) | IC50 [25] | IC50 [27] | MIC99 (Mycobacterium kansasii [28]) | other results
[N-]=[N+]=[N-].[Na+] [SODIUM AZIDE] | Toxic | – | – | – | – | – | – | – | – | – | – | – | – | – | – | – | – | – | – | – | –
COc1cccc(-c2nnc(SCc3cc([N+](=O)[O-])cc([N+](=O)[O-])c3)o2)c1 | Non-toxic | 0.125 µM (≈ 0.0485 µg/mL) | 47% | 74.2% | 89.6% | 0.5 µM (≈ 0.194 µg/mL) | 10.5% | 16.4% | 0.125 µM (≈ 0.0485 µg/mL) | 16 µM (≈ 6.21 µg/mL) | 105% | 0.125 µM (≈ 0.0485 µg/mL) | 0.5 µM (≈ 0.194 µg/mL) | 0.125 µM (≈ 0.0485 µg/mL) | 16 µM (≈ 6.21 µg/mL) | > 20 µM | 1 µM (≈ 0.388 µg/mL) | > 20 µM | > 20 µM | 0.25 µM (≈ 0.0971 µg/mL) | MIC95 (Klebsiella pneumoniae [2]): > 125 µM; MIC50 [4]: > 125 µM; MIC50 (Lichtheimia corymbifera): > 125 µM; MIC95 (Escherichia coli): > 125 µM; Activity (Salmonella typhimurium [8]): Non-toxic; MIC80 (Candida albicans): > 125 µM; MIC95 (Klebsiella pneumoniae [10]): > 125 µM; MIC95 (Enterococcus faecalis): > 125 µM; MIC80 (Candida tropicalis): > 125 µM; MIC95 (Pseudomonas aeruginosa): > 125 µM; MIC95 (Staphylococcus aureus [16]): > 125 µM; MIC80 (Nakaseomyces glabratus): > 125 µM; MIC95 [18]: > 125 µM; MIC80 (Trichosporon asahii): > 125 µM; MIC50 (Aspergillus fumigatus): > 125 µM; MIC95 (Staphylococcus aureus [20]): > 125 µM; IC50 (HeLa [26]): 4100 nM; MIC80 (Pichia kudriavzevii): > 125 µM
O=[N+]([O-])c1cc(CSc2nnc(-c3cccc(Cl)c3)o2)cc([N+](=O)[O-])c1 | Non-toxic | ≤ 0.03 µM | 45.9% | 81.9% | 97.9% | 0.5 µM (≈ 0.196 µg/mL) | 57.9% | 34.6% | 0.125 µM (≈ 0.0491 µg/mL) | 16 µM (≈ 6.28 µg/mL) | 93.3% | 0.125 µM (≈ 0.0491 µg/mL) | 0.5 µM (≈ 0.196 µg/mL) | 0.06 µM (≈ 0.0236 µg/mL) | 16 µM (≈ 6.28 µg/mL) | > 20 µM | 1 µM (≈ 0.393 µg/mL) | > 20 µM | > 20 µM | 0.25 µM (≈ 0.0982 µg/mL) | IC50 [29]: > 20 µM; Activity (Salmonella typhimurium [8]): Non-toxic
O=[N+]([O-])c1cc(CSc2nnc(-c3ccccc3)s2)cc([N+](=O)[O-])c1 | Non-toxic | 0.06 µM (≈ 0.0225 µg/mL) | 36.3% | 78.5% | 84.3% | 1 µM (≈ 0.374 µg/mL) | 7.3% | 15.9% | 0.25 µM (≈ 0.0936 µg/mL) | 8 µM (≈ 3 µg/mL) | 97.8% | 0.25 µM (≈ 0.0936 µg/mL) | 0.5 µM (≈ 0.187 µg/mL) | 0.125 µM (≈ 0.0468 µg/mL) | 16 µM (≈ 5.99 µg/mL) | > 20 µM | 1 µM (≈ 0.374 µg/mL) | > 20 µM | > 20 µM | 0.5 µM (≈ 0.187 µg/mL) | IC50 [29]: 3.1 µM; Activity (Salmonella typhimurium [8]): Non-toxic; IC50 (HeLa [26]): 2400 nM
COc1ccc(-c2nnc(SCc3cc([N+](=O)[O-])cc([N+](=O)[O-])c3)o2)cc1 | – | – | 34.1% | 83.9% | 91.6% | – | 14.5% | 37.3% | – | – | 80.6% | – | – | – | – | > 20 µM | 0.5 µM (≈ 0.194 µg/mL) | > 20 µM | > 20 µM | – | IC50 [29]: 10.6 µM
O=[N+]([O-])c1cc(CSc2nnc(-c3cccc(Cl)c3)s2)cc([N+](=O)[O-])c1 | – | 0.125 µM (≈ 0.0511 µg/mL) | 32.8% | 78.6% | 90.7% | 1 µM (≈ 0.409 µg/mL) | 48.6% | 16.8% | 0.25 µM (≈ 0.102 µg/mL) | 8 µM (≈ 3.27 µg/mL) | 108% | 0.25 µM (≈ 0.102 µg/mL) | 0.5 µM (≈ 0.204 µg/mL) | 0.125 µM (≈ 0.0511 µg/mL) | 16 µM (≈ 6.54 µg/mL) | > 20 µM | 0.5 µM (≈ 0.204 µg/mL) | > 20 µM | > 20 µM | 1 µM (≈ 0.409 µg/mL) | IC50 (HeLa [26]): 2600 nM
O=[N+]([O-])c1ccc(CSc2nnc(-c3ccc(Cl)cc3)o2)c([N+](=O)[O-])c1 | – | 2 µM (≈ 0.786 µg/mL) | – | – | – | 4 µM (≈ 1.57 µg/mL) | – | – | 4 µM (≈ 1.57 µg/mL) | 8 µM (≈ 3.14 µg/mL) | – | 2 µM (≈ 0.786 µg/mL) | 8 µM (≈ 3.14 µg/mL) | 2 µM (≈ 0.786 µg/mL) | 16 µM (≈ 6.28 µg/mL) | – | 8 µM (≈ 3.14 µg/mL) | – | – | 4 µM (≈ 1.57 µg/mL) | MIC95 (Klebsiella pneumoniae [2]): > 125 µM; MIC50 [4]: > 125 µM; MIC50 (Lichtheimia corymbifera): > 125 µM; MIC95 (Escherichia coli): > 125 µM; MIC80 (Candida albicans): > 125 µM; MIC95 (Klebsiella pneumoniae [10]): > 125 µM; MIC95 (Enterococcus faecalis): > 125 µM; MIC80 (Candida tropicalis): > 125 µM; MIC95 (Pseudomonas aeruginosa): > 125 µM; MIC95 (Staphylococcus aureus [16]): > 125 µM; MIC80 (Nakaseomyces glabratus): > 125 µM; MIC95 [18]: > 125 µM; MIC80 (Trichosporon asahii): > 125 µM; MIC50 (Aspergillus fumigatus): > 125 µM; MIC95 (Staphylococcus aureus [20]): > 125 µM; MIC80 (Pichia kudriavzevii): > 125 µM
O=[N+]([O-])c1ccc2c(c1)Cc1ccccc1-2 [2-NITROFLUORENE] | – | – | – | – | – | – | – | – | – | – | – | – | – | – | – | – | – | – | – | – | Activity (Salmonella typhimurium [8]): Toxic
